Experimental data from patent US10092575B2, “Substituted thiophene- and furan-fused azolopyrimidine-5-(6H)-one compounds” (DART NEUROSCIENCE (CAYMAN) LTD., priority 2012, dated 2018).

molecular target: human PDE1b enzyme (Homo sapiens (Human), UniProt Q01064); assay: PDE1b inhibitory assay (IMAP TR-FRET); settings: not given

Row | Compound | EC50 [nM]
1 | COc1ccc(Cn2c(=O)n3ncnc3c3cc(CN4CCN(C)CC4)sc32)cc1 [Example 32, 6-(4-Methoxybenzyl)-8-((4-methylpiperazin-1-yl)methyl)thieno[3,2-e][1,2,4]triazolo[1,5-c]pyrimidin-5(6H)-one] | 100 to 1000
2 | COc1ccc(Cn2c(=O)n3ncnc3c3cc(-c4c(C)noc4C)sc32)cc1 [Example 42, 8-(3,5-Dimethylisoxazol-4-yl)-6-(4-methoxybenzyl)thieno[3,2-e][1,2,4]triazolo[1,5-c]pyrimidin-5(6H)-one] | 100 to 1000
3 | COc1ccc(Cn2c(=O)n3ncnc3c3c(C)c(CN4CCCC4)sc32)cc1 [Example 43, 6-(4-Methoxybenzyl)-9-methyl-8-(pyrrolidin-1-ylmethyl)thieno[3,2-e][1,2,4]triazolo[1,5-c]pyrimidin-5(6H)-one] | 100 to 1000
4 | COc1ccc(Cn2c(=O)n3ncnc3c3c(C)c(CN4CCNCC4)sc32)cc1 [Example 49, 6-(4-Methoxybenzyl)-9-methyl-8-(piperazin-1-ylmethyl)thieno[3,2-e][1,2,4]triazolo[1,5-c]pyrimidin-5(6H)-one] | 100 to 1000

same assay, conditions: negative log of half-maximal molar inhibitory concentration; 200 nM FAM-cAMP; reported as ranges

Row | Compound | PDE1b (pEC50)
5 | COc1ccc(Cn2c(=O)n3ncnc3c3cc(CN4C[C@@H](C)O[C@@H](C)C4)sc32)cc1 [Example 33, 8-(((2S,6R)-2,6-Dimethylmorpholino)methyl)-6-(4-methoxybenzyl)thieno[3,2-e][1,2,4]triazolo[1,5-c]pyrimidin-5(6H)-one] | >7
6 | CCN1CCN(Cc2cc3c(s2)n(Cc2ccc(OC)cc2)c(=O)n2ncnc32)CC1=O [Example 34, 8-((4-Ethyl-3-oxopiperazin-1-yl)methyl)-6-(4-methoxybenzyl)thieno[3,2-e][1,2,4]triazolo[1,5-c]pyrimidin-5(6H)-one] | >7
7 | COc1ccc(Cn2c(=O)n3ncnc3c3cc(CN4CCN(S(C)(=O)=O)CC4)sc32)cc1 [Example 35, 6-(4-Methoxybenzyl)-8-((4-(methylsulfonyl)piperazin-1-yl)methyl)thieno[3,2-e][1,2,4]triazolo[1,5-c]pyrimidin-5(6H)-one] | >7
8 | COc1ccc(Cn2c(=O)n3ncnc3c3cc(CN4CCOC(C)(C)C4)sc32)cc1 [Example 36] | >7
9 | COc1ccc(Cn2c(=O)n3ncnc3c3cc(CN4CC5CC4CO5)sc32)cc1 (stereo not drawn) [Example 37, 8-(2-Oxa-5-azabicyclo[2.2.1]heptan-5-ylmethyl)-6-(4-methoxybenzyl)thieno[3,2-e][1,2,4]triazolo[1,5-c]pyrimidin-5(6H)-one] | >7
10 | COc1ccc(Cn2c(=O)n3ncnc3c3cc(CN4CC5(CCOCC5)C4)sc32)cc1 [Example 38, 8-(7-Oxa-2-azaspiro[3.5]nonan-2-ylmethyl)-6-(4-methoxybenzyl)thieno[3,2-e][1,2,4]triazolo[1,5-c]pyrimidin-5(6H)-one] | >7
11 | COc1ccc(Cn2c(=O)n3ncnc3c3cc(CN4CCC5(CC4)COC5)sc32)cc1 [Example 39, 8-(2-Oxa-7-azaspiro[3.5]nonan-7-ylmethyl)-6-(4-methoxybenzyl)thieno[3,2-e][1,2,4]triazolo[1,5-c]pyrimidin-5(6H)-one] | >7
12 | COc1ccc(Cn2c(=O)n3ncnc3c3cc(CN4CCN5C(=O)OCC5C4)sc32)cc1 (stereo not drawn) [Example 40, 7-((6-(4-Methoxybenzyl)-5-oxo-5,6-dihydrothieno[3,2-e][1,2,4]triazolo[1,5-c]pyrimidin-8-yl)methyl)tetrahydro-1H-oxazolo[3,4-a]pyrazin-3(5H)-one] | >7
13 | COc1ccc(Cn2c(=O)n3ncnc3c3cc(-c4cc(C(F)(F)F)nn4C)sc32)cc1 [Example 41, 6-(4-Methoxybenzyl)-8-(1-methyl-3-(trifluoromethyl)-1H-pyrazol-5-yl)thieno[3,2-e][1,2,4]triazolo[1,5-c]pyrimidin-5(6H)-one] | >7
14 | COc1ccc(Cn2c(=O)n3ncnc3c3c(C)c(CN4CCOCC4)sc32)cc1 [Example 44, 6-(4-Methoxybenzyl)-9-methyl-8-(morpholinomethyl)thieno[3,2-e][1,2,4]triazolo[1,5-c]pyrimidin-5(6H)-one] | >7
15 | COc1ccc(Cn2c(=O)n3ncnc3c3c(C)c(CN(C)C)sc32)cc1 [Example 45, 8-((Dimethylamino)methyl)-6-(4-methoxybenzyl)-9-methylthieno[3,2-e][1,2,4]triazolo[1,5-c]pyrimidin-5(6H)-one] | >7
16 | COc1ccc(Cn2c(=O)n3ncnc3c3c(C)c(CN(C)C4CC4)sc32)cc1 [Example 46, 8-((Cyclopropyl(methyl)amino)methyl)-6-(4-methoxybenzyl)-9-methylthieno[3,2-e][1,2,4]triazolo[1,5-c]pyrimidin-5(6H)-one] | >7
17 | COc1ccc(Cn2c(=O)n3ncnc3c3c(C)c(CN4CCC(O)CC4)sc32)cc1 [Example 47, 8-((4-Hydroxypiperidin-1-yl)methyl)-6-(4-methoxybenzyl)-9-methylthieno[3,2-e][1,2,4]triazolo[1,5-c]pyrimidin-5(6H)-one] | >7
18 | COc1ccc(Cn2c(=O)n3ncnc3c3c(C)c(CN(CCO)Cc4ccccc4)sc32)cc1 [Example 48, 8-((Benzyl(2-hydroxyethyl)amino)methyl)-6-(4-methoxybenzyl)-9-methylthieno[3,2-e][1,2,4]triazolo[1,5-c]pyrimidin-5(6H)-one] | >7
19 | COc1ccc(Cn2c(=O)n3ncnc3c3c(C)c(CNCC4(C)COC4)sc32)cc1 [Example 50, 6-(4-Methoxybenzyl)-9-methyl-8-((((3-methyloxetan-3-yl)methyl)amino)methyl)thieno[3,2-e][1,2,4]triazolo[1,5-c]pyrimidin-5(6H)-one] | >7
20 | COc1ccc(Cn2c(=O)n3ncnc3c3c(C)c(CN4CCN(C(C)=O)CC4)sc32)cc1 [Example 51, 8-((4-Acetylpiperazin-1-yl)methyl)-6-(4-methoxybenzyl)-9-methylthieno[3,2-e][1,2,4]triazolo[1,5-c]pyrimidin-5(6H)-one] | >7
21 | COc1ccc(Cn2c(=O)n3ncnc3c3c(C)c(CNCc4cccnc4)sc32)cc1 [Example 52, 6-(4-Methoxybenzyl)-9-methyl-8-(((pyridin-3-ylmethyl)amino)methyl)thieno[3,2-e][1,2,4]triazolo[1,5-c]pyrimidin-5(6H)-one] | >7
22 | COc1ccc(Cn2c(=O)n3ncnc3c3c(C)c(CN4CCNC(=O)C4)sc32)cc1 [Example 53, 6-(4-Methoxybenzyl)-9-methyl-8-((3-oxopiperazin-1-yl)methyl)thieno[3,2-e][1,2,4]triazolo[1,5-c]pyrimidin-5(6H)-one] | >7
23 | COc1ccc(Cn2c(=O)n3ncnc3c3c(C)c(CN(C)CC4CCCO4)sc32)cc1 (stereo not drawn) [Example 54, 6-(4-Methoxybenzyl)-9-methyl-8-((methyl((tetrahydrofuran-2-yl)methyl)amino)methyl)thieno[3,2-e][1,2,4]triazolo[1,5-c]pyrimidin-5(6H)-one] | >7
24 | COc1ccc(Cn2c(=O)n3ncnc3c3c(C)c(CN4C[C@@H](C)O[C@@H](C)C4)sc32)cc1 [Example 55, 8-(((2S,6R)-2,6-Dimethylmorpholino)methyl)-6-(4-methoxybenzyl)-9-methylthieno[3,2-e][1,2,4]triazolo[1,5-c]pyrimidin-5(6H)-one] | >7
25 | COc1ccc(Cn2c(=O)n3ncnc3c3c(C)c(CN4Cc5ccccc5C4)sc32)cc1 [Example 56, 8-(Isoindolin-2-ylmethyl)-6-(4-methoxybenzyl)-9-methylthieno[3,2-e][1,2,4]triazolo[1,5-c]pyrimidin-5(6H)-one] | >7
26 | COc1ccc(Cn2c(=O)n3ncnc3c3c(C)c(CNC4CC4)sc32)cc1 [Example 57, 8-((Cyclopropylamino)methyl)-6-(4-methoxybenzyl)-9-methylthieno[3,2-e][1,2,4]triazolo[1,5-c]pyrimidin-5(6H)-one] | >7
27 | COC[C@@H]1CCCN1Cc1sc2c(c1C)c1ncnn1c(=O)n2Cc1ccc(OC)cc1 [Example 58, (S)-6-(4-Methoxybenzyl)-8-((2-(methoxymethyl)pyrrolidin-1-yl)methyl)-9-methylthieno[3,2-e][1,2,4]triazolo[1,5-c]pyrimidin-5(6H)-one] | >7
28 | COc1ccc(Cn2c(=O)n3ncnc3c3c(C)c(CN(C)CC4CCOC4)sc32)cc1 (stereo not drawn) [Example 59, 6-(4-Methoxybenzyl)-9-methyl-8-((methyl((tetrahydrofuran-3-yl)methyl)amino)methyl)thieno[3,2-e][1,2,4]triazolo[1,5-c]pyrimidin-5(6H)-one] | >7
29 | COc1ccc(Cn2c(=O)n3ncnc3c3c(C)c(CN4CCCOCC4)sc32)cc1 [Example 61, 8-((1,4-Oxazepan-4-yl)methyl)-6-(4-methoxybenzyl)-9-methylthieno[3,2-e][1,2,4]triazolo[1,5-c]pyrimidin-5(6H)-one] | >7
30 | COc1ccc(Cn2c(=O)n3ncnc3c3c(C)c(CN4CCN(S(C)(=O)=O)CC4)sc32)cc1 [Example 63, 6-(4-Methoxybenzyl)-9-methyl-8-((4-(methylsulfonyl)piperazin-1-yl)methyl)thieno[3,2-e][1,2,4]triazolo[1,5-c]pyrimidin-5(6H)-one] | >7
31 | COc1ccc(Cn2c(=O)n3ncnc3c3c(C)c(CN4CCN(C(C)C)CC4)sc32)cc1 [Example 64, 8-((4-Isopropylpiperazin-1-yl)methyl)-6-(4-methoxybenzyl)-9-methylthieno[3,2-e][1,2,4]triazolo[1,5-c]pyrimidin-5(6H)-one] | >7
32 | COc1ccc(Cn2c(=O)n3ncnc3c3c(C)c(CN4CC5CC4CO5)sc32)cc1 (stereo not drawn) [Example 65, 8-(2-Oxa-5-azabicyclo[2.2.1]heptan-5-ylmethyl)-6-(4-methoxybenzyl)-9-methylthieno[3,2-e][1,2,4]triazolo[1,5-c]pyrimidin-5(6H)-one] | >7
33 | CCN1CCN(Cc2sc3c(c2C)c2ncnn2c(=O)n3Cc2ccc(OC)cc2)CC1=O [Example 66, 8-((4-Ethyl-3-oxopiperazin-1-yl)methyl)-6-(4-methoxybenzyl)-9-methylthieno[3,2-e][1,2,4]triazolo[1,5-c]pyrimidin-5(6H)-one] | >7
